Structures can show the parent of a compound that is named as a salt. Where two headings read alike, the source gives them in different places.
Key:
DPP8 = DPP8 (Homo sapiens (Human), UniProt Q6V1X1); experiment: DPP8 enzyme inhibition, IC50 measurement (Ala-Pro-pNA release); assay type: biochemical; settings: Table 3; mean ± SD (n = 3); read-out: DPP8 IC50 ± SD
Description: (§1) IC50 measurements. […] The Magellan software was used to process the data, which was then fitted using a non-linear fit model in GraFit 7. […] As a blank, the assay buffer was used instead of the enzyme. Screening measurements were carried out in duplo and IC50 values were determined in triplo with at least eight different inhibitor concentrations as described by Van Goethem et al.

DPP9 = DPP9 (Homo sapiens (Human), UniProt Q86TI2); experiment: DPP9 enzyme inhibition, IC50 measurement (Ala-Pro-pNA release); assay type: biochemical; settings: for SI DPP9/8 / SI DPP9/DPP8: selectivity index; for SI DPP9/8: DPP8 IC50 over DPP9 IC50; for SI DPP9/DPP8: Table 4
Description: DPP4 was purified from human seminal plasma as described previously.^[3]
as §1

[1] = Table 3, mean ± SD (n = 3), read-out: DPP9 IC50 ± SD

DPP9, sequence (Q86TI2 whole entry): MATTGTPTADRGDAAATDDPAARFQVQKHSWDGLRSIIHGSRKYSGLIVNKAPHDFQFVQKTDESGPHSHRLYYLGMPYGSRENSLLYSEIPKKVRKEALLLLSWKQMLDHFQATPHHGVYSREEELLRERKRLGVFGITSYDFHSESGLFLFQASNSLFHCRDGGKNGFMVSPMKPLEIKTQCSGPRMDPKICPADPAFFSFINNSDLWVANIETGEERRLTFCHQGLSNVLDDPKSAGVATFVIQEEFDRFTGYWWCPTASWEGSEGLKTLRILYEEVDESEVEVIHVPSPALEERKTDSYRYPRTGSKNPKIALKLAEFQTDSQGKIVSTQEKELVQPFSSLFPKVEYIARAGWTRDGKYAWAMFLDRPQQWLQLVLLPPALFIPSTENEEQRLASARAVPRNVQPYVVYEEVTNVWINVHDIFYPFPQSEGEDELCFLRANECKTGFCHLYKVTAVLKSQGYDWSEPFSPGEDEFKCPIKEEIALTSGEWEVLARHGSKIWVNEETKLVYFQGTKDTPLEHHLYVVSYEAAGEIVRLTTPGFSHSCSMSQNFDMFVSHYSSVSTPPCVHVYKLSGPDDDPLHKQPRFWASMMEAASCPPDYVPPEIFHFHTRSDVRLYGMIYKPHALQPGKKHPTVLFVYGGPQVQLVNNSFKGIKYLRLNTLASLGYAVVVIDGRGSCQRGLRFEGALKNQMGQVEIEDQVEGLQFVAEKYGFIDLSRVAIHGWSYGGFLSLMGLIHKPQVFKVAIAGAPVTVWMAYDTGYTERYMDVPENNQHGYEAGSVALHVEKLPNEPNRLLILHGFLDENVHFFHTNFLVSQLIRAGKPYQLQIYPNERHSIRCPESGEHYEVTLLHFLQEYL
DPP8, sequence (Q6V1X1 whole entry): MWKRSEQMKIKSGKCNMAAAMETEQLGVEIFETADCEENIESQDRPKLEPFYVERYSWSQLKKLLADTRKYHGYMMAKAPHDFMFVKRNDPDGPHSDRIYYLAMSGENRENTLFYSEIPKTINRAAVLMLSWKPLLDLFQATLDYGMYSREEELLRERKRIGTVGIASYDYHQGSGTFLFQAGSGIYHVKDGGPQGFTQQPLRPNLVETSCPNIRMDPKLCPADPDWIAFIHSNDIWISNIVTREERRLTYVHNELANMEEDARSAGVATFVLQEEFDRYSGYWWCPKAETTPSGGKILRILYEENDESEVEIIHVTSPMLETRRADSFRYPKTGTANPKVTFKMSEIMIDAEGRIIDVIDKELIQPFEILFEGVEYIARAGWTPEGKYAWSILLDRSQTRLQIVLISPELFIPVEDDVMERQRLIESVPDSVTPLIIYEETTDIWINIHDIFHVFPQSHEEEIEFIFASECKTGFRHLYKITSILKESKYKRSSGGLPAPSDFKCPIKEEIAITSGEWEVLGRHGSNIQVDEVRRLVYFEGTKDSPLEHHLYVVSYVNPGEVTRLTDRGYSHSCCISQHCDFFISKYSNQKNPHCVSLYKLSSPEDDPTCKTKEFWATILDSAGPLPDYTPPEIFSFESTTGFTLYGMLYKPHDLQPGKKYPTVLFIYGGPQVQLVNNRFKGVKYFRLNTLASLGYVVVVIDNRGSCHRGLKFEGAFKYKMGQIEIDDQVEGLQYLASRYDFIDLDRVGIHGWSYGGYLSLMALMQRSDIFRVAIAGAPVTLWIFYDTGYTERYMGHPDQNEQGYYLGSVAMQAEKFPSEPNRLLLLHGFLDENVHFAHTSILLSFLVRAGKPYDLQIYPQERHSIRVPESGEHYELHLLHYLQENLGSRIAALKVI

Compound	SI DPP9/DPP8 (DPP9)	other results
O=C(NC(c1ccc(F)cc1)c1ccc(F)cc1)OC12CC3CC(CC(NCC(=O)N4Cc5ccccc5C4)(C3)C1)C2 [Compound 32, 3-((2-(isoindolin-2-yl)-2-oxoethyl)amino)adamantan-1-yl (bis(4-fluorophenyl)methyl)carbamate]		IC50 (DPP8): 667 ± 31.1 nM; IC50 (DPP9; [1]): 47.7 nM; SI DPP9/8 (DPP9; Table 3): 14.0
CC(C)(C)OC(=O)NC12CC3CC(CC(NCC(=O)N4Cc5ccccc5C4)(C3)C1)C2 [Compound 28, tert-butyl(3-((2-(isoindolin-2-yl)-2oxoethyl)amino)adamantan-1-yl)carbamate]		IC50 (DPP8): 1140 ± 150 nM; IC50 (DPP9; [1]): 36.7 nM; SI DPP9/8 (DPP9; Table 3): 31.7
Cl.O=C(NC12CC3CC(CC(NCC(=O)N4Cc5ccc(F)cc5C4)(C3)C1)C2)c1ccc(-c2ccccc2)nc1 [Compound 89, N-((1s,3r,5R,7S)-3-((2-(5-fluoroisoindolin-2-yl)-2-oxoethyl)amino)adamantan-1-yl)-6-phenylnicotinamide hydrochloride]	28	
O=C(CCCCC1SCC2NC(=O)NC21)NCCOCCOCCOCCNC(=O)NC12CC3CC(CC(NCC(=O)N4Cc5cc(F)c(F)cc5C4)(C3)C1)C2 (stereo not drawn) [Compound 115, N-(1-((3-((2-(5,6-difluoroisoindolin-2-yl)-2-oxoethyl)amino)adamantan-1-yl)amino)-1-oxo-5,8,11-trioxa-2-azatridecan-13-yl)-5-(2-oxohexahydro-1H thieno[3,4-d]imidazol-4-yl)pentanamide]	7	
Cl.O=C(CNC12CC3CC(C1)CC(NS(=O)(=O)c1ccc(-c4ccccc4)cc1)(C3)C2)N1Cc2ccc(F)cc2C1 [Compound 102, N-((1s,3r,5R,7S)-3-((2-(5-fluoroisoindolin-2-yl)-2-oxoethyl)amino)adamantan-1-yl)-[1,1′-biphenyl]-4-sulfonamide hydrochloride]	4	
Cc1ncsc1-c1ccc(CNC(=O)[C@@H]2C[C@@H](O)CN2C(=O)[C@@H](NC(=O)CCOCCOc2ccc(-c3ccc(C(=O)NC45CC6CC(CC(NCC(=O)N7Cc8ccc(F)cc8C7)(C6)C4)C5)cc3)cc2)C(C)(C)C)cc1 [Compound 125, (2S,4R)-1-((2S)-2-(3-(2-((4′-((3-((2-(5-fluoroisoindolin-2-yl)-2-oxoethyl)amino)adamantan-1-yl)carbamoyl)-[1,1′-biphenyl]-4-yl)oxy)ethoxy)propanamido)-3,3-dimethylbutanoyl)-4-hydroxy-N-(4-(4-methylthiazol-5-yl)benzyl)pyrrolidine-2-carboxamide]	9	
Cl.O=C(NC12CC3CC(CC(NCC(=O)N4Cc5ccc(F)cc5C4)(C3)C1)C2)c1ccc(-c2ccccc2)cc1 [Compound 87, N-((1s,3r,5R,7S)-3-((2-(5-fluoroisoindolin-2-yl)-2-oxoethyl)amino)adamantan-1-yl)-[1,1′-biphenyl]-4-carboxamide hydrochloride]	54	
O=C(CNC12CC3CC(C1)CC(Nc1ccc(-c4ccccc4)nc1)(C3)C2)N1Cc2ccc(F)cc2C1 [Compound 109, 1-(5-fluoroisoindolin-2-yl)-2-((-3-((6-phenylpyridin-3-yl)amino)adamantan-1-yl)amino)ethan-1-one dihydrochloride]	2	
Cl.O=C(NC12CC3CC(CC(NCC(=O)N4Cc5ccc(F)cc5C4)(C3)C1)C2)c1ccc(-c2ccc(O)cc2)cc1 [Compound 105, N-(-3-((2-(5-fluoroisoindolin-2-yl)-2-oxoethyl)amino)adamantan-1-yl)-4′-hydroxy-[1,1′-biphenyl]-4-carboxamide hydrochloride]	27	
Cc1ncsc1-c1ccc(CNC(=O)[C@@H]2C[C@@H](O)CN2C(=O)[C@@H](NC(=O)c2ccc(-c3ccc(C(=O)NC45CC6CC(CC(NCC(=O)N7Cc8ccc(F)cc8C7)(C6)C4)C5)cc3)cc2)C(C)(C)C)cc1 [Compound 123, N4-(3-((2-(5-fluoroisoindolin-2-yl)-2-oxoethyl)amino)adamantan-1-yl)-N4′-((S)-1-((2S,4R)-4-hydroxy-2-((4-(4-methylthiazol-5-yl)benzyl)carbamoyl)pyrrolidin-1-yl)-3,3-dimethyl-1-oxobutan-2-yl)-[1,1′-biphenyl]-4,4′-dicarboxamide]	3	
Cc1ncsc1-c1ccc(CNC(=O)[C@@H]2C[C@@H](O)CN2C(=O)[C@@H](NC(=O)c2csc(-c3ccc(C(=O)NC45CC6CC(CC(NCC(=O)N7Cc8ccc(F)cc8C7)(C6)C4)C5)cc3)c2)C(C)(C)C)cc1 [Compound 122, (2S,4R)-1-((2S)-2-(5-(4-((3-((2-(5-fluoroisoindolin-2-yl)-2-oxoethyl)amino)adamantan-1-yl)carbamoyl)phenyl)thiophene-3-carboxamido)-3,3-dimethylbutanoyl)-4-hydroxy-N-(4-(4-methylthiazol-5-yl)benzyl)pyrrolidine-2-carboxamide]	11	
Cl.O=C(NC12CC3CC(CC(NCC(=O)N4Cc5ccc(F)cc5C4)(C3)C1)C2)c1ccc(-c2ccccc2F)cc1 [Compound 94, 2′-fluoro-N-((1s,3r,5R,7S)-3-((2-(5-fluoroisoindolin-2-yl)-2-oxoethyl)amino)adamantan-1-yl)-[1,1′-biphenyl]-4-carboxamide hydrochloride]	26	
CC[N+]1=C(/C=C/C=C2/N(CCCCCC(=O)NC34CC5CC(CC(NCC(=O)N6Cc7ccc(F)cc7C6)(C5)C3)C4)c3ccc(S(=O)(=O)O)cc3C2(C)C)C(C)(C)c2cc(S(=O)(=O)[O-])ccc21 [Compound 120, 1-ethyl-2-((E)-3-((E)-1-(6-((-3-((2-(5-fluoroisoindolin-2-yl)-2-oxoethyl)amino)adamantan-1-yl)amino)-6-oxohexyl)-3,3-dimethyl-5-sulfoindolin-2-ylidene)prop-1-en-1-yl)-3,3-dimethyl-3H-indol-1-ium-5-sulfonate]	21	
Cl.O=C(NC12CC3CC(CC(NCC(=O)N4Cc5ccc(F)cc5C4)(C3)C1)C2)c1cccc(-c2ccccc2)c1 [Compound 101, N-((1s,3r,5R,7S)-3-((2-(5-fluoroisoindolin-2-yl)-2-oxoethyl)amino)adamantan-1-yl)-[1,1′-biphenyl]-3-carboxamide hydrochloride]	4	
Cl.O=C(NC12CC3CC(CC(NCC(=O)N4Cc5ccc(F)cc5C4)(C3)C1)C2)c1ccc(-c2cccs2)nc1 [Compound 100, N-((1s,3r,5R,7S)-3-((2-(5-fluoroisoindolin-2-yl)-2-oxoethyl)amino)adamantan-1-yl)-6-(thiophen-2-yl)nicotinamide hydrochloride]	22	
Cl.O=C(NC12CC3CC(CC(NCC(=O)N4Cc5ccc(F)cc5C4)(C3)C1)C2)c1ccc(-c2ccccc2)s1 [Compound 97, N-((1s,3r,5R,7S)-3-((2-(5-fluoroisoindolin-2-yl)-2-oxoethyl)amino)adamantan-1-yl)-5-phenylthiophene-2-carboxamide hydrochloride]	11	
N#C[C@@H]1[C@@H]2C[C@@H]2CN1C(=O)CNC12CC3CC(CC(O)(C3)C1)C2 [Compound 5l, (1R,2S,5S)-3-((3-hydroxyadamantan-1-yl)glycyl)-3-azabicyclo[3.1.0]hexane-2-carbonitrile]		DPP9/8 selectivity index (DPP9): > 10
COC(=O)c1csc(-c2ccc(C(=O)NC34CC5CC(CC(NCC(=O)N6Cc7ccc(F)cc7C6)(C5)C3)C4)cc2)c1.Cl [Compound 103, Methyl 5-(4-((-3-((2-(5-fluoroisoindolin-2-yl)-2-oxoethyl)amino)adamantan-1-yl)carbamoyl)phenyl)thiophene-3-carboxylate hydrochloride]	25	
Cl.O=C(NC12CC3CC(CC(NCC(=O)N4Cc5ccc(F)cc5C4)(C3)C1)C2)c1ccc(-c2cccs2)cc1 [Compound 92, N-((1s,3r,5R,7S)-3-((2-(5-fluoroisoindolin-2-yl)-2-oxoethyl)amino)adamantan-1-yl)-4-(thiophen-2-yl)benzamide hydrochloride]	27	
COC(=O)c1ccc(-c2ccc(C(=O)NC34CC5CC(CC(NCC(=O)N6Cc7ccc(F)cc7C6)(C5)C3)C4)cc2)cc1 [Compound 104, Methyl 4′-((-3-((2-(5-fluoroisoindolin-2-yl)-2-oxoethyl)amino)adamantan-1-yl)carbamoyl)-[1,1′-biphenyl]-4-carboxylate hydrochloride]	46	IC50 (DPP9; read-out: IC50 DPP9): 1 nM
Cl.N#Cc1ccc(C(=O)NC23CC4CC(CC(NCC(=O)N5Cc6ccc(F)cc6C5)(C4)C2)C3)cc1 [Compound 96, 4-cyano-N-((1s,3r,5R,7S)-3-((2-(5-fluoroisoindolin-2-yl)-2-oxoethyl)amino)adamantan-1-yl)benzamide hydrochloride]	12	
CCCCNC12CC3CC(C1)CC(NCC(=O)N1Cc4ccccc4C1)(C3)C2 [Compound 25, 2-((3-(butylamino)adamantan-1-yl)amino)-1-(isoindolin-2-yl)ethan-1-one 2,2,2-trifluoroacetate]		IC50 (DPP9; [1]): 477 ± 28 nM; SI DPP9/8 (DPP9; Table 3): >21
Cl.O=C(NC12CC3CC(CC(NCC(=O)N4Cc5ccc(F)cc5C4)(C3)C1)C2)c1cnc2ccccc2c1 [Compound 99, N-((1s,3r,5R,7S)-3-((2-(5-fluoroisoindolin-2-yl)-2-oxoethyl)amino)adamantan-1-yl)quinoline-3-carboxamide hydrochloride]	13	
Cl.O=C(NC12CC3CC(CC(NCC(=O)N4Cc5ccc(F)cc5C4)(C3)C1)C2)c1ccc(-c2ccc(F)cc2)cc1 [Compound 93, 4′-fluoro-N-((1s,3r,5R,7S)-3-((2-(5-fluoroisoindolin-2-yl)-2-oxoethyl)amino)adamantan-1-yl)-[1,1′-biphenyl]-4-carboxamide hydrochloride]	59	

Reference: US20250353833A1, “DPP9 BINDING COMPOUNDS” (UNIVERSITEIT ANTWERPEN, priority 2022, published 2025)
